Test results as given in publication PMC10628300, “Dual function of OmpM as outer membrane tether and nutrient uptake channel in diderm Firmicutes” (Nature Communications, 2023).

Experiments:
EcOmpF = target: T1, EcOmpF (Escherichia coli, UniProt P02931); experiment: proteoliposome swelling, decrease in A400; type: biochemical; details: diffusive transport through general porin, no binding constant, 10 mM HEPES-NaOH pH 7.5, 12 mM stachyose inside
T1 construct: gene ompF; full-length, untagged (pBAD24-EcOmpF), expressed in E. coli BL21(DE3), purified from outer membranes; trimer; reconstituted in liposomes
T1 sequence (P02931 23-362): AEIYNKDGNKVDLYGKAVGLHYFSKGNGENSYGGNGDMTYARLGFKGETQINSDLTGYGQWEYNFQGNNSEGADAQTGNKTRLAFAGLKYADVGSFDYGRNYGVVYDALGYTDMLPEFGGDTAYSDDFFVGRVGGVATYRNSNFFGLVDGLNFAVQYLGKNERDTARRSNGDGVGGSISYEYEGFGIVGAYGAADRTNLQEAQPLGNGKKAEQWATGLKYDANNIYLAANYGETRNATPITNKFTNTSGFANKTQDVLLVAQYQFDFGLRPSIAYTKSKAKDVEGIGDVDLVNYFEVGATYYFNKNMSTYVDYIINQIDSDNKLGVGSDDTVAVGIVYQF

[1] = target: T2, FNLLGLLA_00518 β-barrel (OmpA-like) (Veillonella parvula, UniProt A0AB38YQ02); experiment: proteoliposome swelling, decrease in A400; type: biochemical; details: diffusive transport through channel, no binding constant; much slower than VpOmpM1 and EcOmpF; 10 mM HEPES-NaOH pH 7.5, 12 mM stachyose inside
T2 construct: gene CYJ21_000020; beta-barrel region, residues 21-200 (from plasmid name pB22-00518_21-200); TamB signal peptide and N-terminal His7; expressed in E. coli C43(DE3) delta-cyoABCD; reconstituted in liposomes

VpOmpM1 (full-length) = target: T3, VpOmpM1 (full-length) (Veillonella parvula, UniProt A0A100YN03); experiment: proteoliposome swelling, decrease in A400; type: biochemical; details: diffusive transport through general porin, no binding constant; 10 mM HEPES-NaOH pH 7.5, 12 mM stachyose inside; rates normalised to EcOmpF with arabinose
T3 construct: gene KHZ90_07665; full-length without native signal peptide; E. coli TamB signal peptide and N-terminal His7 added (pJW46); expressed in E. coli C43(DE3) delta-cyoABCD; homotrimer; reconstituted in liposomes

[2] = target: VpOmpM1 stalk construct (residues 22-107) (Veillonella parvula); experiment: crystal structure; stalk construct 22-107 at ~20 mg/ml; 0.1 M citric acid pH 3.5, 2.0 M ammonium sulphate, 20 °C; three chains in the asymmetric unit
[3] = target: VpOmpM1 (OmpM1 from Veillonella parvula), full-length, expressed in E. coli (Veillonella parvula); experiment: cryo-EM structure; single particle; purified VpOmpM1 from E. coli (11.6 mg/ml) or V. parvula (8 mg/ml) in DM detergent, grids plunge-frozen at 4 °C; reconstructions without symmetry (C1) and with C3

Compound	proteoliposome swelling, decrease in A400 [1]	proteoliposome swelling, decrease in A400 (VpOmpM1 (full-length))	also measured
OC1OC[C@H](O)[C@H](O)[C@H]1O (some centres unmarked) [arabinose]	–	–	proteoliposome swelling, decrease in A400 (EcOmpF; reference condition to which all rates are normalised): All data were normalized to EcOmpF-containing liposome swelling in the presence of arabinose
NCC(=O)O [glycine]	could only transport putrescine and glycine at much slower rates than VpOmpM1 and EcOmpF	–	–
NCCCCN [putrescine]	could only transport putrescine and glycine at much slower rates than VpOmpM1 and EcOmpF	VpOmpM1 could transport lactate, which is essential for V. parvula growth, and putrescine	proteoliposome swelling, decrease in A400 (EcOmpF; rates normalised to EcOmpF with arabinose): putrescine and glycine at much slower rates than VpOmpM1 and EcOmpF
VpOmpM1 stalk construct (residues 22-107) (domain or fragment)	–	–	stoichiometry N [2]: 3
C[C@H](O)C(=O)O [lactate]	–	VpOmpM1 could transport lactate, which is essential for V. parvula growth, and putrescine	–
VpOmpM1 (OmpM1 from Veillonella parvula), full-length, expressed in E. coli (natural protein)	–	–	stoichiometry N [3]: 3
